Tests used:
[1] = Evaluation of anti-obesity efficacy in diet-induced obesity (DIO) mouse model; type: in vivo, C57BL/6J-DIO mice; settings: 0.1 mpk s.c. QD, 8 weeks, 60% HFD
Method: The sustained-release formulation of Example 3 according to the present invention was administered to a diet-induced obesity (DIO) mouse model to confirm the anti-obesity efficacy.
Sixteen-week-old male C57BL/6J and C57BL/6J-DIO mice (The Jackson Laboratory (JAX), Saeron Bio) were used in the study. After introduction, the mice were sufficiently fed with a regular chow diet (5 kcal % of fat, PicoLab, #5053, USA) or a high fat diet (60 kcal % of fat, Research diet, D12492, USA) together with water, maintained at a temperature of 22±2 °C and a humidity of 50±10%, and acclimated in individual cages under an automatically controlled 12-hour light/dark cycle (dark: 7 pm to 7 am). After one week of acclimation, all prepared subjects were administered and acclimated, and clinical signs (activity, stool abnormalities, bleeding, wounds, deformities, skin, hair, eye abnormalities, etc.) were observed twice a day (when administered in the morning and when monitored in the afternoon).
To evaluate body weight and food intake, the drug was administered for 8 weeks under conditions described in Table 6, and body weight (FX-2000i, A&D company, 0.01 to 2200 g) and food intake (CSG201F, OHAUS, 0.1 g to 200 g) were measured daily starting from the first day of administration. All result values were expressed as the mean±standard error, and the statistical significance of the group was calculated through an independent t-test between test substance administration groups.
The body weight measurement results were shown in FIG. 5A, and the body weight gain rate (ΔBody weight from baseline (vs Con(-)), %) was shown in FIG. 5B. This was shown as the body weight change (%) calculated by comparing the drug-administered groups to the negative control group.

[2] = Pharmacokinetic profile of sustained-release formulation in minipigs (s.c., LC-MS/MS of blood); type: in vivo; settings: 0.08 mpk
Method: Next, in order to evaluate the pharmacokinetics in medium-sized animals, the sustained-release formulation of Example 3 according to the present invention was administered to minipigs, and the drug release patterns within the microspheres in the body were evaluated.
After subcutaneous injection (S.C) of drug at a dose of 0.08 mpk (mg/kg) into 20 to 30 kg of male SPF minipigs, the blood concentration of semaglutide was observed over time. A 2.5 ml of blood was collected from the jugular vein at 1 hour, 6 hours, 12 hours, 24 hours, 2 days, 3 days, 5 days, 7 days, 9 days, 11 days, 14 days, 16 days, 18 days, 21 days, 24 days, 28 days, 31 days, 35 days, 42 days, 49 days, 56 days, 63 days, and 70 days (total 23 points) after injection, respectively, stored at −80 °C, and then subjected to LC-MS/MS analysis.

Release duration of semaglutide ([2]; formulation containing the microspheres of Example 3, compared with S.D. rats): longer in minipigs
Structure (SMILES): CC[C@H](C)[C@H](NC(=O)[C@H](Cc1ccccc1)NC(=O)[C@H](CCC(=O)O)NC(=O)[C@H](CCCCNC(=O)COCCOCCNC(=O)COCCOCCNC(=O)CC[C@H](NC(=O)CCCCCCCCCCCCCCCCC(=O)O)C(=O)O)NC(=O)[C@H](C)NC(=O)[C@H](C)NC(=O)[C@H](CCC(N)=O)NC(=O)CNC(=O)[C@H](CCC(=O)O)NC(=O)[C@H](CC(C)C)NC(=O)[C@H](Cc1ccc(O)cc1)NC(=O)[C@H](CO)NC(=O)[C@H](CO)NC(=O)[C@@H](NC(=O)[C@H](CC(=O)O)NC(=O)[C@H](CO)NC(=O)[C@@H](NC(=O)[C@H](Cc1ccccc1)NC(=O)[C@@H](NC(=O)CNC(=O)[C@H](CCC(=O)O)NC(=O)C(C)(C)NC(=O)[C@@H](N)Cc1cnc[nH]1)[C@@H](C)O)[C@@H](C)O)C(C)C)C(=O)N[C@@H](C)C(=O)N[C@@H](Cc1c[nH]c2ccccc12)C(=O)N[C@@H](CC(C)C)C(=O)N[C@H](C(=O)N[C@@H](CCCNC(=N)N)C(=O)NCC(=O)N[C@@H](CCCNC(=N)N)C(=O)NCC(=O)O)C(C)C [semaglutide, N^6,26-{18-[N-(17carboxyheptadecanoyl)-L-γ-glutamyl]-10-oxo-3,6,12,15-tetraoxa-9,18-diazaoctanoyl}-[8 (2-amino-2-propanoic acid), 34-L-arginine] human glucagon-like peptide 1(7-37)]
Body weight loss rate (ΔBody weight from baseline vs Con(-)) [1]: statistically significant (p<0.05) body weight loss rate
Body weight vs negative control group [1]: statistically significant decrease (p<0.05) in body weight
Food intake vs negative control group [1]: statistically significant decrease (p<0.05) in food intake
Initial burst release or delayed release ([2]; formulation containing the microspheres of Example 3): no initial burst release or delayed release in minipigs

Reference: patent US20260355115A1, “SUSTAINED-RELEASE MICROSPHERES INCLUDING GLP-1 RECEPTOR AGONIST OR PHARMACEUTICALLY ACCEPTABLE SALT THEREOF AND USE THEREOF” (PEPTRON, INC., priority 2022, published 2026)
